Measurements: US20240058422A1, “GLUCAGON-LIKE PEPTIDE-1 RECEPTOR ANTAGONISTS” (INDIANA UNIVERSITY RESEARCH AND TECHNOLOGY CORPORATION, priority 2022, published 2024)
Starred links: 1 amine or outer side, 2 acyl side, 3 side chain; linkers in the order of their positions; H or OH if unused. Residues, ends and D or L forms follow the SMILES beside them. Groups on a side chain read outwards from the residue. *: point of attachment. C18 diacid = O=C(O)CCCCCCCCCCCCCCCCC(=O)*; γGlu = O=C(O)[C@H](CCC(=O)[*:2])N[*:1]; Palmitoyl = CCCCCCCCCCCCCCCC(=O)*; AEEA = NCCOCCOCC(=O)O

Assays:
Solubility in buffer = settings: 80 mM ammonium bicarbonate buffer, pH 7.7, Solubility [mg/mL] 80 mM AmBicarb pH7.7, Table 2; 80 mM AmBicarb pH7.7
GLP-1R = GLP-1R (Homo sapiens, UniProt P43220); assay: GLP-1 receptor-mediated cAMP induction, luciferase reporter gene antagonism assay; format: cell-based; set-up: host or cells: HEK 293; settings: Table 2; C16 linker variants of 9-40amide Jant4 K40[X]; antagonism of 0.05 nM GLP-1, HEK 293 cells; read-out: Biactivity IC50
GLP-1R, sequence (P43220 24-463): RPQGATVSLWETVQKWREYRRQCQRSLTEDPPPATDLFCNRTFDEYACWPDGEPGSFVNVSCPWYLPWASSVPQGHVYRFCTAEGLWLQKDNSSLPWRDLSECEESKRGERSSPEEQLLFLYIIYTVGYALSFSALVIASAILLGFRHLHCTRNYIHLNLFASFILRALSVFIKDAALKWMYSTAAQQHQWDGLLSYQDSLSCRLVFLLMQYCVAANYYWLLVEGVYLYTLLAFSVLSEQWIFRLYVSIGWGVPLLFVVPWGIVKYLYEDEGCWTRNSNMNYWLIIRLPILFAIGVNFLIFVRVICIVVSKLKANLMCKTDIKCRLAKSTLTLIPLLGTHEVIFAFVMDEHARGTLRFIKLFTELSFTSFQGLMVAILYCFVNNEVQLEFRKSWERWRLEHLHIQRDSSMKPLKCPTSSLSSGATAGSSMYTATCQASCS
Procedure: GLP-1 Receptor-Mediated cAMP Induction The ability of peptides to stimulate or block cAMP induction at the GLP-1 receptor was examined by a luciferase-based reporter gene assay. Cotransfection of HEK 293 cells with the human GLP-1 receptor (Open Biosystems) and a cAMPinducible (cAMPresponsive element) luciferase gene constituted the cellular construct where receptor activation could be measured. Bioassays were performed by first serum depriving the cells for 16 h in 0.25% bovine growth serum (HyClone)-supplemented Dulbecco's modified Eagle's medium (Invitrogen) and then adding serial dilutions of the peptides over the appropriate concentration ranges in 96-well poly-D-lysine-coated plates (BD Biosciences). For antagonism assays, a constant concentration of GLP-1 (0.05 nM) was added to the assay plate after the diluted peptides. Incubation continued for 5 h at 37° C., 5% CO2 and was followed by the addition of an equivalent volume (100 μL) of LucLite luminescence substrate reagent (Perkin-Elmer). MicroBeta 1450 liquid scintillation counting (Perkin-Elmer) quantified the luminescence signal in counts per second (cps) after shaking the plate at 600 rpm for 3 min. Data was plotted using Origin software (OriginLab) and the effective concentration 50 (EC50) or inhibitory concentration 50 (IC50) was determined by sigmoidal fitting. Potency was determined by comparative analysis of relative EC50 or IC50 values. Each experiment was repeated at least three times with each sample assayed in duplicate.

Row | SMILES | solubility (Solubility in buffer) [mg/mL] | IC50 (GLP-1R) [nM]
1 | CC[C@H](C)[C@H](NC(=O)[C@H](Cc1ccccc1)NC(=O)[C@H](CCC(=O)O)NC(=O)[C@H](CCCNC(=N)N)NC(=O)[C@@H](NC(=O)[C@H](C)NC(=O)[C@H](CCC(N)=O)NC(=O)[C@H](CCC(=O)O)NC(=O)[C@H](CCC(=O)O)NC(=O)[C@H](CC(C)C)NC(=O)[C@H](Cc1ccc(O)cc1)NC(=O)[C@H](CO)NC(=O)[C@H](CO)NC(=O)[C@@H](NC(=O)[C@@H](N)CC(=O)O)C(C)C)C(C)C)C(=O)N[C@@H](C)C(=O)N[C@@H](Cc1c[nH]c2ccccc12)C(=O)N[C@@H](CC(C)C)C(=O)N[C@H](C(=O)N[C@@H](CCCCN)C(=O)NCC(=O)NCC(=O)N1CCC[C@H]1C(=O)N[C@@H](CO)C(=O)N[C@@H](CO)C(=O)NCC(=O)N[C@@H](C)C(=O)N1CCC[C@H]1C(=O)N1CCC[C@H]1C(=O)N1CCC[C@H]1C(=O)N[C@@H](CO)C(=O)N[C@@H](CCCCNC(=O)CCCCCCCCCCCCCCCCC(=O)O)C(N)=O)C(C)C [compound 63] (H-DVSSYLEEQAVREFIAWLVKGGPSSGAPPPSK(C18 diacid)-NH2; N-terminus assumed) | > 25 | 114
2 | CC[C@H](C)[C@H](NC(=O)[C@H](Cc1ccccc1)NC(=O)[C@H](CCC(=O)O)NC(=O)[C@H](CCCNC(=N)N)NC(=O)[C@@H](NC(=O)[C@H](C)NC(=O)[C@H](CCC(N)=O)NC(=O)[C@H](CCC(=O)O)NC(=O)[C@H](CCC(=O)O)NC(=O)[C@H](CC(C)C)NC(=O)[C@H](Cc1ccc(O)cc1)NC(=O)[C@H](CO)NC(=O)[C@H](CO)NC(=O)[C@@H](NC(=O)[C@@H](N)CC(=O)O)C(C)C)C(C)C)C(=O)N[C@@H](C)C(=O)N[C@@H](Cc1c[nH]c2ccccc12)C(=O)N[C@@H](CC(C)C)C(=O)N[C@H](C(=O)N[C@@H](CCCCN)C(=O)NCC(=O)NCC(=O)N1CCC[C@H]1C(=O)N[C@@H](CO)C(=O)N[C@@H](CO)C(=O)NCC(=O)N[C@@H](C)C(=O)N1CCC[C@H]1C(=O)N1CCC[C@H]1C(=O)N1CCC[C@H]1C(=O)N[C@@H](CO)C(=O)N[C@@H](CCCCNC(=O)CC[C@H](NC(=O)CC[C@H](NC(=O)CC[C@H](NC(=O)CC[C@H](NC(=O)CC[C@H](NC(=O)CC[C@H](NC(=O)CCCCCCCCCCCCCCCCC(=O)O)C(=O)O)C(=O)O)C(=O)O)C(=O)O)C(=O)O)C(=O)O)C(N)=O)C(C)C [compound 66] (H-DVSSYLEEQAVREFIAWLVKGGPSSGAPPPSK([γGlu-γGlu-γGlu-γGlu-γGlu-γGlu-C18 diacid])-NH2; N-terminus assumed) | > 25 | 1460
3 | CCCCCCCCCCCCCCCC(=O)N[C@@H](CCC(=O)N[C@@H](CCC(=O)N[C@@H](CCC(=O)N[C@@H](CCC(=O)N[C@@H](CCC(=O)N[C@@H](CCC(=O)NCCCC[C@H](NC(=O)[C@H](CO)NC(=O)[C@@H]1CCCN1C(=O)[C@@H]1CCCN1C(=O)[C@@H]1CCCN1C(=O)[C@H](C)NC(=O)CNC(=O)[C@H](CO)NC(=O)[C@H](CO)NC(=O)[C@@H]1CCCN1C(=O)CNC(=O)CNC(=O)[C@H](CCCCN)NC(=O)[C@@H](NC(=O)[C@H](CC(C)C)NC(=O)[C@H](Cc1c[nH]c2ccccc12)NC(=O)[C@H](C)NC(=O)[C@@H](NC(=O)[C@H](Cc1ccccc1)NC(=O)[C@H](CCC(=O)O)NC(=O)[C@H](CCCNC(=N)N)NC(=O)[C@@H](NC(=O)[C@H](C)NC(=O)[C@H](CCC(N)=O)NC(=O)[C@H](CCC(=O)O)NC(=O)[C@H](CCC(=O)O)NC(=O)[C@H](CC(C)C)NC(=O)[C@H](Cc1ccc(O)cc1)NC(=O)[C@H](CO)NC(=O)[C@H](CO)NC(=O)[C@@H](NC(=O)[C@@H](N)CC(=O)O)C(C)C)C(C)C)[C@@H](C)CC)C(C)C)C(N)=O)C(=O)O)C(=O)O)C(=O)O)C(=O)O)C(=O)O)C(=O)O [compound 55] (H-DVSSYLEEQAVREFIAWLVKGGPSSGAPPPSK([γGlu-γGlu-γGlu-γGlu-γGlu-γGlu-Palmitoyl])-NH2; N-terminus assumed) | > 20 | 22
4 | CCCCCCCCCCCCCCCC(=O)NCCOCCOCC(=O)N[C@@H](CCC(=O)NCCOCCOCC(=O)N[C@@H](CCC(=O)NCCCC[C@H](NC(=O)[C@H](CO)NC(=O)[C@@H]1CCCN1C(=O)[C@@H]1CCCN1C(=O)[C@@H]1CCCN1C(=O)[C@H](C)NC(=O)CNC(=O)[C@H](CO)NC(=O)[C@H](CO)NC(=O)[C@@H]1CCCN1C(=O)CNC(=O)CNC(=O)[C@H](CCCCN)NC(=O)[C@@H](NC(=O)[C@H](CC(C)C)NC(=O)[C@H](Cc1c[nH]c2ccccc12)NC(=O)[C@H](C)NC(=O)[C@@H](NC(=O)[C@H](Cc1ccccc1)NC(=O)[C@H](CCC(=O)O)NC(=O)[C@H](CCCNC(=N)N)NC(=O)[C@@H](NC(=O)[C@H](C)NC(=O)[C@H](CCC(N)=O)NC(=O)[C@H](CCC(=O)O)NC(=O)[C@H](CCC(=O)O)NC(=O)[C@H](CC(C)C)NC(=O)[C@H](Cc1ccc(O)cc1)NC(=O)[C@H](CO)NC(=O)[C@H](CO)NC(=O)[C@@H](NC(=O)[C@@H](N)CC(=O)O)C(C)C)C(C)C)[C@@H](C)CC)C(C)C)C(N)=O)C(=O)O)C(=O)O [compound 62] (H-DVSSYLEEQAVREFIAWLVKGGPSSGAPPPSK([γGlu-AEEA-γGlu-AEEA-Palmitoyl])-NH2; N-terminus assumed) | > 25 | 7
5 | CCCCCCCCCCCCCCCC(=O)N[C@@H](CCC(=O)N[C@@H](CCC(=O)NCCCC[C@H](NC(=O)[C@H](CO)NC(=O)[C@@H]1CCCN1C(=O)[C@@H]1CCCN1C(=O)[C@@H]1CCCN1C(=O)[C@H](C)NC(=O)CNC(=O)[C@H](CO)NC(=O)[C@H](CO)NC(=O)[C@@H]1CCCN1C(=O)CNC(=O)CNC(=O)[C@H](CCCCN)NC(=O)[C@@H](NC(=O)[C@H](CC(C)C)NC(=O)[C@H](Cc1c[nH]c2ccccc12)NC(=O)[C@H](C)NC(=O)[C@@H](NC(=O)[C@H](Cc1ccccc1)NC(=O)[C@H](CCC(=O)O)NC(=O)[C@H](CCCNC(=N)N)NC(=O)[C@@H](NC(=O)[C@H](C)NC(=O)[C@H](CCC(N)=O)NC(=O)[C@H](CCC(=O)O)NC(=O)[C@H](CCC(=O)O)NC(=O)[C@H](CC(C)C)NC(=O)[C@H](Cc1ccc(O)cc1)NC(=O)[C@H](CO)NC(=O)[C@H](CO)NC(=O)[C@@H](NC(=O)[C@@H](N)CC(=O)O)C(C)C)C(C)C)[C@@H](C)CC)C(C)C)C(N)=O)C(=O)O)C(=O)O [compound 53] (H-DVSSYLEEQAVREFIAWLVKGGPSSGAPPPSK([γGlu-γGlu-Palmitoyl])-NH2) | > 20 | 13
6 | CC[C@H](C)[C@H](NC(=O)[C@H](Cc1ccccc1)NC(=O)[C@H](CCC(=O)O)NC(=O)[C@H](CCCNC(=N)N)NC(=O)[C@@H](NC(=O)[C@H](C)NC(=O)[C@H](CCC(N)=O)NC(=O)[C@H](CCC(=O)O)NC(=O)[C@H](CCC(=O)O)NC(=O)[C@H](CC(C)C)NC(=O)[C@H](Cc1ccc(O)cc1)NC(=O)[C@H](CO)NC(=O)[C@H](CO)NC(=O)[C@@H](NC(=O)[C@@H](N)CC(=O)O)C(C)C)C(C)C)C(=O)N[C@@H](C)C(=O)N[C@@H](Cc1c[nH]c2ccccc12)C(=O)N[C@@H](CC(C)C)C(=O)N[C@H](C(=O)N[C@@H](CCCCN)C(=O)NCC(=O)NCC(=O)N1CCC[C@H]1C(=O)N[C@@H](CO)C(=O)N[C@@H](CO)C(=O)NCC(=O)N[C@@H](C)C(=O)N1CCC[C@H]1C(=O)N1CCC[C@H]1C(=O)N1CCC[C@H]1C(=O)N[C@@H](CO)C(=O)N[C@@H](CCCCNC(=O)CC[C@H](NC(=O)CC[C@H](NC(=O)CCCCCCCCCCCCCCCCC(=O)O)C(=O)O)C(=O)O)C(N)=O)C(C)C [compound 64] (H-DVSSYLEEQAVREFIAWLVKGGPSSGAPPPSK([γGlu-γGlu-C18 diacid])-NH2; N-terminus assumed) | > 25 | 841
7 | CC[C@H](C)[C@H](NC(=O)[C@H](Cc1ccccc1)NC(=O)[C@H](CCC(=O)O)NC(=O)[C@H](CCCNC(=N)N)NC(=O)[C@@H](NC(=O)[C@H](C)NC(=O)[C@H](CCC(N)=O)NC(=O)[C@H](CCC(=O)O)NC(=O)[C@H](CCC(=O)O)NC(=O)[C@H](CC(C)C)NC(=O)[C@H](Cc1ccc(O)cc1)NC(=O)[C@H](CO)NC(=O)[C@H](CO)NC(=O)[C@@H](NC(=O)[C@@H](N)CC(=O)O)C(C)C)C(C)C)C(=O)N[C@@H](C)C(=O)N[C@@H](Cc1c[nH]c2ccccc12)C(=O)N[C@@H](CC(C)C)C(=O)N[C@H](C(=O)N[C@@H](CCCCN)C(=O)NCC(=O)NCC(=O)N1CCC[C@H]1C(=O)N[C@@H](CO)C(=O)N[C@@H](CO)C(=O)NCC(=O)N[C@@H](C)C(=O)N1CCC[C@H]1C(=O)N1CCC[C@H]1C(=O)N1CCC[C@H]1C(=O)N[C@@H](CO)C(=O)N[C@@H](CCCCNC(=O)COCCOCCNC(=O)COCCOCCNC(=O)CC[C@H](NC(=O)CCCCCCCCCCCCCCCCC(=O)O)C(=O)O)C(N)=O)C(C)C [compound 67] (H-DVSSYLEEQAVREFIAWLVKGGPSSGAPPPSK([AEEA-AEEA-γGlu-C18 diacid])-NH2) | > 25 | 579
